This passage reports Kd results from PMC12409540 (ACS Omega, 2025).

This assay deals with Nurr1 protein (Homo sapiens, UniProt P43354). In words: SPR. In kind it is binding.
Sequence of Nurr1 protein (P43354 whole entry): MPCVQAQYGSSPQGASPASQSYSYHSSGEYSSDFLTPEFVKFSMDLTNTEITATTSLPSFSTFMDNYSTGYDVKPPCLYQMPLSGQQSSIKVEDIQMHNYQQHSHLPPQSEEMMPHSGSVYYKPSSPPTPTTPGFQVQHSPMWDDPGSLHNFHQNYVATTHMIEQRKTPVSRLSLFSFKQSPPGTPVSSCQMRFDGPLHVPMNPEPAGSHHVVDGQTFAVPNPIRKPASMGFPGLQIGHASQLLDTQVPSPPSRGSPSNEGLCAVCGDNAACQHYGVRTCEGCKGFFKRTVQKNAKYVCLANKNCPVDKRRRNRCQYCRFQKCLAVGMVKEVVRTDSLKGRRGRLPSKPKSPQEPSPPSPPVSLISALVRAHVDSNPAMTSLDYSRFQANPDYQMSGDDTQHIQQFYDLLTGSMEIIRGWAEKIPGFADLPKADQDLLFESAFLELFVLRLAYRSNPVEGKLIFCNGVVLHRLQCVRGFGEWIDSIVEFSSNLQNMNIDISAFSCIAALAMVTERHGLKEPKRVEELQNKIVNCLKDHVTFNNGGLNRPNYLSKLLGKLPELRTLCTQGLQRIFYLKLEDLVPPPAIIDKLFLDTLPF

On to `CCN(CC)Cc1cc(Nc2ccnc3cc(Cl)ccc23)ccc1O` [amodiaquine], for which the affinity, expressed as Kd, was 37 µM.
On to `CO[C@H]1C[C@H](O[C@H]2CC[C@]3(C=O)[C@H]4CC[C@]5(C)[C@@H](C6=CC(=O)OC6)CC[C@]5(O)[C@@H]4CC[C@]3(O)C2)O[C@H](C)[C@H]1O[C@@H]1O[C@H](CO[C@@H]2O[C@H](CO)[C@@H](O)[C@H](O)[C@H]2O)[C@@H](O)[C@H](O)[C@H]1O` [compound 7, K-strophanthoside], for which the affinity, expressed as Kd, was 23.1 µM. Against the preceding compound, the Kd is about 1.6-fold lower.
